# Reference: ChEMBL document CHEMBL5518212, “Structure-Based Design of Novel G-Protein-Coupled Receptor TAAR1 Agonists as Potential Antipsychotic Drug Candidates” (J Med Chem, 2024)
# What was measured:
# [1] = target: T1, Trace amine-associated receptor 1 (Homo sapiens, UniProt Q96RJ0); assay: Agonist activity at Gs-mediated TAAR1 activation (unknown origin) expressed in HEK293 cells pretreated with coelenterazine for 30 mins followed by compound addition by BRET assay; assay type: functional, cell-based
# T1 sequence (Q96RJ0 whole entry): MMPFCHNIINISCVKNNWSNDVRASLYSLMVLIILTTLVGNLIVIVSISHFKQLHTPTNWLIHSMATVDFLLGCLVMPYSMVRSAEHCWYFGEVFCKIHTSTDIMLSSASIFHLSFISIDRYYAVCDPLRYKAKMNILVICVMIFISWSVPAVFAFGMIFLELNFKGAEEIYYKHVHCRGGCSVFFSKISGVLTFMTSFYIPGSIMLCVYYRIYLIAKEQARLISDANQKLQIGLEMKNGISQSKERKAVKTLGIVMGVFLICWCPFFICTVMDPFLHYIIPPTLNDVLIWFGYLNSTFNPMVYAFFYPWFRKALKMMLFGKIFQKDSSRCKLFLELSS
# [2] = target: T1, Trace amine-associated receptor 1; assay: Agonist activity at Gq-mediated TAAR1 activation (unknown origin) expressed in HEK293 cells pretreated with coelenterazine for 30 mins followed by compound addition by BRET assay; assay type: functional, cell-based
# [3] = Toxicity in C57BL/6J mouse assessed as induction of catalepsy at 3 to 10 mg/kg, po measured at 30 to 60 mins; assay type: organism-based; settings: in vivo, dose lower 3 mg/kg, time lower 30 min, dose upper 10 mg/kg, time upper 60 min
# [4] = Toxicity in C57BL/6J mouse assessed as reduction in baseline locomotion at 3 mg/kg, po; assay type: organism-based; settings: in vivo
# [5] = Solubility of the compound at pH 2; assay type: physicochemical; settings: buffer
# [6] = Solubility of the compound at pH 7; assay type: physicochemical; settings: buffer
# [7] = Solubility of the compound at pH 7.4; assay type: physicochemical; settings: buffer
# [8] = organism: Mus musculus; settings: C57BL/6J, dose 0.3-3 mg/kg, route po, time 70.0 min
# [9] = Half-life in Sprague-Dawley rat at 2 mg/kg, iv measured upto 8 hrs by LC-MS/MS analysis; assay type: ADME, organism-based; settings: in vivo
# [10] = Half-life in Sprague-Dawley rat at 10 mg/kg, po measured upto 8 hrs by LC-MS/MS analysis; assay type: ADME, organism-based; settings: in vivo
# [11] = Tmax in Sprague-Dawley rat at 2 mg/kg, iv measured upto 8 hrs by LC-MS/MS analysis; assay type: ADME, organism-based; settings: in vivo
# [12] = Tmax in Sprague-Dawley rat at 10 mg/kg, po measured upto 8 hrs by LC-MS/MS analysis; assay type: ADME, organism-based; settings: in vivo
# [13] = Cmax in Sprague-Dawley rat at 2 mg/kg, iv measured upto 8 hrs by LC-MS/MS analysis; assay type: ADME, organism-based; settings: in vivo
# [14] = Cmax in Sprague-Dawley rat at 10 mg/kg, po measured upto 8 hrs by LC-MS/MS analysis; assay type: ADME, organism-based; settings: in vivo
# [15] = AUC(0 to t) in Sprague-Dawley rat at 2 mg/kg, iv measured upto 8 hrs by LC-MS/MS analysis; assay type: ADME, organism-based; settings: in vivo
# [16] = AUC(0 to t) in Sprague-Dawley rat at 10 mg/kg, po measured upto 8 hrs by LC-MS/MS analysis; assay type: ADME, organism-based; settings: in vivo
# [17] = AUC(0 to infinity) in Sprague-Dawley rat at 2 mg/kg, iv measured upto 8 hrs by LC-MS/MS analysis; assay type: ADME, organism-based; settings: in vivo
# [18] = AUC(0 to infinity) in Sprague-Dawley rat at 10 mg/kg, po measured upto 8 hrs by LC-MS/MS analysis; assay type: ADME, organism-based; settings: in vivo
# [19] = Clearance in Sprague-Dawley rat at 2 mg/kg, iv measured upto 8 hrs by LC-MS/MS analysis; assay type: ADME, organism-based; settings: in vivo
# [20] = Oral bioavailability in Sprague-Dawley rat at 10 mg/kg measured upto 8 hrs by LC-MS/MS analysis; assay type: ADME, organism-based; settings: in vivo
# [21] = Acute toxicity in Kunming mouse assessed as change in body weight at 500 mg/kg, po measured after 7 days; assay type: organism-based; settings: in vivo, 168 h, time 7 day
# [22] = Acute toxicity in Kunming mouse assessed as abnormal behavior at 50 mg/kg, po administered every 2 days for 14 days; assay type: organism-based; settings: in vivo, 336 h, time 14 day
# [23] = Acute toxicity in Kunming mouse assessed as change in body weight at 50 mg/kg, po administered every 2 days for 14 days; assay type: organism-based; settings: in vivo, 336 h, time 14 day
# [24] = Toxicity in Kunming mouse assessed as heart damage at 50 mg/kg, po administered every 2 days for 14 days by H and E staining based assay; assay type: organism-based; settings: in vivo, 336 h, time 14 day
# [25] = Toxicity in Kunming mouse assessed as liver damage at 50 mg/kg, po administered every 2 days for 14 days by H and E staining based assay; assay type: organism-based; settings: in vivo, 336 h, time 14 day
# [26] = Toxicity in Kunming mouse assessed as spleen damage at 50 mg/kg, po administered every 2 days for 14 days by H and E staining based assay; assay type: organism-based; settings: in vivo, 336 h, time 14 day
# [27] = Toxicity in Kunming mouse assessed as lung damage at 50 mg/kg, po administered every 2 days for 14 days by H and E staining based assay; assay type: organism-based; settings: in vivo, 336 h, time 14 day
# [28] = Toxicity in Kunming mouse assessed as kidney damage at 50 mg/kg, po administered every 2 days for 14 days by H and E staining based assay; assay type: organism-based; settings: in vivo, 336 h, time 14 day
smiles,measurement,setting,value
NCCc1ccc(Br)cc1,EC50,[1],9.85 nM
same,EC50,[2],66.5 nM
Nc1ccc(-c2cccc(F)c2)cc1,EC50,[2],28.9 nM
C[C@@H](N)C(=O)Nc1ccc(-c2ccco2)cc1,Activity,[3],Non-Toxic
same,Activity,[4],Non-Toxic
same,solubility,[5],390 µg/mL
same,solubility,[6],710 µg/mL
same,solubility,[7],540 µg/mL
NCc1ccc(-c2ccccc2)cc1,EC50,[1],301 nM
CN(C)Cc1ccc(-c2ccccc2)cc1,EC50,[1],9.46 nM
same,Activity,[3],Non-Toxic
same,inhibition,[8],Dose-Dependent Effect
Nc1ccc(-c2ccccc2)cc1 [BIPHENYL-4-AMINE],EC50,[2],342 nM
CN(C)Cc1ccc(-c2cccc(Cl)c2)cc1,Activity,[3],Non-Toxic
NCCc1ccc(-c2cccc(F)c2)cc1,EC50,[1],1.17 nM
C[C@@H](N)C(=O)Nc1ccc(-c2ccco2)cc1.Cl,half-life,[9],73.8 min
same,half-life,[10],139 min
same,Tmax,[11],1.8 min
same,Tmax,[12],1.5 h
same,Cmax,[13],292 ng/mL
same,Cmax,[14],154 ng/mL
same,AUC(0-t) at 8 h,[15],323 ng·h/mL
same,AUC(0-t) at 8 h,[16],627 ng·h/mL
same,AUC(0-inf),[17],327 ng·h/mL
same,AUC(0-inf),[18],634 ng·h/mL
same,clearance,[19],104 mL/min/kg
same,bioavailability,[20],39%
same,solubility,[5],8640 µg/mL
same,solubility,[6],7500 µg/mL
same,solubility,[7],3110 µg/mL
same,Activity,[21],Non-Toxic
same,Activity,[22],Non-Toxic
same,Activity,[23],Non-Toxic
same,Activity,[24],Non-Toxic
same,Activity,[25],Non-Toxic
same,Activity,[26],Non-Toxic
same,Activity,[27],Non-Toxic
same,Activity,[28],Non-Toxic
